The results in this text go back to PMC4369186 (European journal of pharmacology, 2015).

Molecules are shown by their SMILES. Read-outs that look alike come from different tables or passages of the source.

By Ki is commonly meant the equilibrium dissociation constant of an inhibitor or competing ligand from its target.

The assay addresses T1, hVAChT (Homo sapiens, UniProt Q16572).
T1 sequence (Q16572 1-532): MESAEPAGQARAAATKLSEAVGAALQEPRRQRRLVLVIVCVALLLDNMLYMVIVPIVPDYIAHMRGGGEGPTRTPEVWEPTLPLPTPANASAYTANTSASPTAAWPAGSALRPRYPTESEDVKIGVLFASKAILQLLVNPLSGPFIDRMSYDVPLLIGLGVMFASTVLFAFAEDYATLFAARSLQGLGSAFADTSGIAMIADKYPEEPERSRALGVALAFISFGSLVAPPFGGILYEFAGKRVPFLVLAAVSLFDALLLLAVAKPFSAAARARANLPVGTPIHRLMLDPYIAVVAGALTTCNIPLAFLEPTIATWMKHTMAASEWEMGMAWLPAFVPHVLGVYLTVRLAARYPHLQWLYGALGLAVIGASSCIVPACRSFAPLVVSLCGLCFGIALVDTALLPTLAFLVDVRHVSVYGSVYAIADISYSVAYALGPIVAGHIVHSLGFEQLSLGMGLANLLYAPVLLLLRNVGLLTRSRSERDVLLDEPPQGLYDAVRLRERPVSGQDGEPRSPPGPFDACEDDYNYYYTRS
As to the kind of experiment: Competitive binding assay with. The conditions noted are these: for inhibition of (-)-[^3H]TZ659 binding to VAChT: competitive binding studies, other CNS receptor ligands.

The mark [1] stands for this setting: radioligand (-)-[^3H]TZ659 2 nM, test ligands 0.1 nM to 10 μM, 60 min, 25 °C.

For the compound `COc1cc2c(cc1OC)CN(CCCCNC(=O)c1cc(C)ccc1OCCF)CC2` [ISO-1], the “inhibition of (-)-[^3H]TZ659 binding to VAChT” value (from here on “inhibition”) is given as “No inhibition”. This compound showed an inhibition constant (Ki) under setting [1] greater than 1000 nM.
The like results for `Cn1cc(-c2ccncc2)c(-c2ccc(OCc3ccc4ccccc4n3)cc2)n1` [MP-10] were, in that order, “No inhibition” and greater than 1000 nM.
For `CC(C)=CCN1CC[C@]2(C)c3cc(O)ccc3C[C@H]1[C@H]2C` [(+)-Pentazocine], the Ki is greater than 1000 nM and the “inhibition” value is “No inhibition”.
As to `COc1cc2c(cc1OC)[C@H]1C[C@@H](O)[C@H](CC(C)C)CN1CC2` [DTBZ], the “inhibition” value is on record as “No inhibition”. This compound gave a Ki under setting [1] greater than 1000 nM.
The like results for `COc1ccccc1N1CCN(CC(C(=O)NC(C)(C)C)c2ccccc2)CC1` (stereo not drawn) [WAY-100135] were, in that order, “No inhibition” and greater than 1000 nM.
For `CCc1cc(Cl)c(OC)c(C(=O)NC[C@@H]2CCCN2CC)c1O` [S-(-)-Eticlopride], in that order: “No inhibition” and greater than 1000 nM.
